What was measured:
[1] = biological target: T1, 5-hydroxytryptamine receptor 1A (Rattus norvegicus, UniProt P19327); assay: Binding affinity towards 5-hydroxytryptamine 1A receptor using [3H]8-OH-DPAT in rat hippocampus; type: tissue-based
T1 sequence (P19327 whole entry): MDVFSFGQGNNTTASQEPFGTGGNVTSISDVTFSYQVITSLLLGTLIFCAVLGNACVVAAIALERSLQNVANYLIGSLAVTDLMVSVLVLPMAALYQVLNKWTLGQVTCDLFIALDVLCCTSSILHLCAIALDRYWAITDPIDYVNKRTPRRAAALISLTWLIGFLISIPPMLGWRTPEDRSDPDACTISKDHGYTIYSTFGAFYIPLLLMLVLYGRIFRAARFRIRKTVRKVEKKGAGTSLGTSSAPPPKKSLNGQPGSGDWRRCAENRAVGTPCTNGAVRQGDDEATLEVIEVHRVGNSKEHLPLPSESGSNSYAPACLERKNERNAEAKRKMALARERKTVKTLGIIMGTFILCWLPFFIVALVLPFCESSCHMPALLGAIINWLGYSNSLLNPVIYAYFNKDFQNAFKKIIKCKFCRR

[2] = biological target: D(1A) dopamine receptor (Rattus norvegicus, UniProt P18901); assay: Binding affinity towards D1 receptor using [3H]-SCH- 23390 in rat striatal tissue; type: tissue-based, Striatum
[3] = biological target: T2, Adrenergic receptor alpha-1 (Rattus norvegicus, UniProt P15823+P23944+P43140); assay: Compound was evaluated for binding affinity towards Alpha-1 adrenergic receptor using [3H]prazosin in rat heart
T2 sequence (P15823 whole entry): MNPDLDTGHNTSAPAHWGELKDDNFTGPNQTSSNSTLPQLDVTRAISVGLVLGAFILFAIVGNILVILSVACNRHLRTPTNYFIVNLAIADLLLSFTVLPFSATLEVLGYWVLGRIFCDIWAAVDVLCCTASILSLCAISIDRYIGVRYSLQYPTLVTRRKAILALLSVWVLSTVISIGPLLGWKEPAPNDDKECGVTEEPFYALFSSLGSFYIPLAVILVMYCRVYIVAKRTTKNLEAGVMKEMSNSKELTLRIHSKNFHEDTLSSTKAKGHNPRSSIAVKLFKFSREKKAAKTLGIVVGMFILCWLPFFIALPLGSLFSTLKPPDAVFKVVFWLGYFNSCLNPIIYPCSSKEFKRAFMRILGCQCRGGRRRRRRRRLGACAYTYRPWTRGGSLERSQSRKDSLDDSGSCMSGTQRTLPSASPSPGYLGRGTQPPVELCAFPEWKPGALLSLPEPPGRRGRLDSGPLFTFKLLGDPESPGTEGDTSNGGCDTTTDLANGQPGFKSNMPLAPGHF
T2 sequence (P23944 whole entry): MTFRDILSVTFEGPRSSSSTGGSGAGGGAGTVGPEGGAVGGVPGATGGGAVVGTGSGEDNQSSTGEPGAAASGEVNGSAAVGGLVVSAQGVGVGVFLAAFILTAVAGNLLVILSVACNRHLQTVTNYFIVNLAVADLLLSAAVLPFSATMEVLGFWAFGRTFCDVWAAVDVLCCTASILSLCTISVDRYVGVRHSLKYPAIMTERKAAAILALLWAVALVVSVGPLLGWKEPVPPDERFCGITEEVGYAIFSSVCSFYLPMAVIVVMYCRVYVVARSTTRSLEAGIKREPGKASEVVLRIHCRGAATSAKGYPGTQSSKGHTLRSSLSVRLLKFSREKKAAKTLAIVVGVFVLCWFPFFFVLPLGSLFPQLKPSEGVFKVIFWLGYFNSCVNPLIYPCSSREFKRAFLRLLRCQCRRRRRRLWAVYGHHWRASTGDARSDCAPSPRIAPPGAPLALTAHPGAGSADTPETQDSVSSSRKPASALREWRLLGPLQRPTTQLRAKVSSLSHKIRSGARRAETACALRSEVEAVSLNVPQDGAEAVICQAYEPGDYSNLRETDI
T2 sequence (P43140 whole entry): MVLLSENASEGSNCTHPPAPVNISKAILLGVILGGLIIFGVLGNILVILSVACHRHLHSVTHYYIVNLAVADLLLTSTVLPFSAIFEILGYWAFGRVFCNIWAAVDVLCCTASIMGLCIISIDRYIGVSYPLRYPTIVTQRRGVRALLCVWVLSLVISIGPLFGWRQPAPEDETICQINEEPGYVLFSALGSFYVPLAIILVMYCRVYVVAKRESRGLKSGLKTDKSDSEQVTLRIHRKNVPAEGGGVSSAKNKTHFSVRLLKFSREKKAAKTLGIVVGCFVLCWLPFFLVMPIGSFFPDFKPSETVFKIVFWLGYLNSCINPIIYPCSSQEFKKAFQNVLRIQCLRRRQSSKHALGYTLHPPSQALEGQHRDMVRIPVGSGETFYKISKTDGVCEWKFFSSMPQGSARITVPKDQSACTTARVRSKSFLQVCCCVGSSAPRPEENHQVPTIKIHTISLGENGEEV

[4] = biological target: D(2) dopamine receptor (Homo sapiens, UniProt P14416)
[5] = biological target: D(3) dopamine receptor (Homo sapiens, UniProt P35462); assay: biochemical
[6] = biological target: T3, D(4) dopamine receptor (Homo sapiens, UniProt P21917); assay: Binding affinity towards Chinese hamster ovary cells transfected with human D4 receptor using [3H]spiperone; type: cell-based
T3 sequence (P21917 whole entry): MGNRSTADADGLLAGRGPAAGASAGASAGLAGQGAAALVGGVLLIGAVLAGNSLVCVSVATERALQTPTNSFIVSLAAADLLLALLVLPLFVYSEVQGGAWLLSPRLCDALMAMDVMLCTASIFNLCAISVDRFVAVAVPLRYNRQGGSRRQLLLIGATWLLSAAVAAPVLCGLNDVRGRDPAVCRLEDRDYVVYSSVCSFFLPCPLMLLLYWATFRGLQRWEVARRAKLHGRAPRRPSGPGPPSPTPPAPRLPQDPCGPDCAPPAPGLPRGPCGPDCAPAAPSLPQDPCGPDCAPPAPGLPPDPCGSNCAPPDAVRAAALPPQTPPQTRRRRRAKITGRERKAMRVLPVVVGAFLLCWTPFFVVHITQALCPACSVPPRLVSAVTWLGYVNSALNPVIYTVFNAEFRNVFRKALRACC

[7] = system: Rattus norvegicus; assay: Selectivity for mesolimbic over nigrostriatal dopamine system in rat brain as ventral tegmental area infusion of muscimol induced locomotor activity (LMA) by sc dose; type: functional
[8] = system: Rattus norvegicus; assay: Selectivity for mesolimbic over nigrostriatal dopamine system in rat brain as substania nigra zona reticulata infusion of muscimol-induced locomotor activity (LMA) by sc dose; type: functional
[9] = biological target: 5-hydroxytryptamine receptor 2A (Bos taurus) (UniProt Q75Z89); assay: Binding affinity towards 5-hydroxytryptamine 2 receptor
[10] = biological target: Adrenergic receptor alpha-1 (Homo sapiens) (UniProt P35348+P25100+P35368); assay: Binding affinity towards Alpha-1 adrenergic receptor; type: protein assay
[11] = biological target: T3, D(4) dopamine receptor; assay: Binding affinity towards Dopamine D4 receptor
[12] = biological target: T2, Adrenergic receptor alpha-1; assay: Binding affinity towards Alpha-1 adrenergic receptor using [3H]prazosin in rat heart
[13] = biological target: Serotonin 3 (5-HT3) receptor; assay: Binding affinity towards 5-hydroxytryptamine 3 receptor; type: protein-complex assay

D(1A) dopamine receptor, sequence (P18901 whole entry): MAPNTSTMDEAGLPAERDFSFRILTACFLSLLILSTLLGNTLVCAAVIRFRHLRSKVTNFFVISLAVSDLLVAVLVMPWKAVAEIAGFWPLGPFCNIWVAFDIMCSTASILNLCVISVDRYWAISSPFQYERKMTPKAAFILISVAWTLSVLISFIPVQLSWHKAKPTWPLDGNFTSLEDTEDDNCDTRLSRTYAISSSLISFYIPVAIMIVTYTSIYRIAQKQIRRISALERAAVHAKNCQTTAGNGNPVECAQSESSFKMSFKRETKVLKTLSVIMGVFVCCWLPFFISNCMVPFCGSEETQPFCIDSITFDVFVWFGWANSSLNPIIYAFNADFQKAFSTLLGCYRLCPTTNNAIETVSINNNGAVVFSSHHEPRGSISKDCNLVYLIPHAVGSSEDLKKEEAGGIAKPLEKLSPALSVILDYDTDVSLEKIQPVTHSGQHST
D(2) dopamine receptor, sequence (P14416 whole entry): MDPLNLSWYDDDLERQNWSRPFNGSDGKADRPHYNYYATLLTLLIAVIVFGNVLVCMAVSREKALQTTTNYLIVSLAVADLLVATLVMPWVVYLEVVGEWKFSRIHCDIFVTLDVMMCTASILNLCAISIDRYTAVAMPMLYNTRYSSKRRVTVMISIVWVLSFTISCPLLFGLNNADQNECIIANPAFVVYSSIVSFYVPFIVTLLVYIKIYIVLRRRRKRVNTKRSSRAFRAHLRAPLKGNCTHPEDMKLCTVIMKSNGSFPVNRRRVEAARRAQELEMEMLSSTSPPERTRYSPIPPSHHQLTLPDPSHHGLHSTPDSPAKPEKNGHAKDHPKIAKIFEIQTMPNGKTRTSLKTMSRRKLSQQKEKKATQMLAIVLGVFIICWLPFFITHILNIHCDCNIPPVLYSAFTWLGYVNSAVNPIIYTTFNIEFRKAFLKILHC
D(3) dopamine receptor, sequence (P35462 whole entry): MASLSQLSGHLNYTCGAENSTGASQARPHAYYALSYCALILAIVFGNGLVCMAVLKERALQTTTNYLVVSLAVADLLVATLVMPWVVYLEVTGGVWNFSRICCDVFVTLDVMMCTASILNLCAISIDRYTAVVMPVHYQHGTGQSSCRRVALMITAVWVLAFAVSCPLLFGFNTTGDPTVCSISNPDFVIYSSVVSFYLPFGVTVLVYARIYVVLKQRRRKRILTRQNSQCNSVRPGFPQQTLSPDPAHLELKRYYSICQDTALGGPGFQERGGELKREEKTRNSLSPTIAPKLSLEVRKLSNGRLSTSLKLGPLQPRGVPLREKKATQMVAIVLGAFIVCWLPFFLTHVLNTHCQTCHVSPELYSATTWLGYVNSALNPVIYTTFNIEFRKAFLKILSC
5-hydroxytryptamine receptor 2A (Bos taurus), sequence (Q75Z89 whole entry): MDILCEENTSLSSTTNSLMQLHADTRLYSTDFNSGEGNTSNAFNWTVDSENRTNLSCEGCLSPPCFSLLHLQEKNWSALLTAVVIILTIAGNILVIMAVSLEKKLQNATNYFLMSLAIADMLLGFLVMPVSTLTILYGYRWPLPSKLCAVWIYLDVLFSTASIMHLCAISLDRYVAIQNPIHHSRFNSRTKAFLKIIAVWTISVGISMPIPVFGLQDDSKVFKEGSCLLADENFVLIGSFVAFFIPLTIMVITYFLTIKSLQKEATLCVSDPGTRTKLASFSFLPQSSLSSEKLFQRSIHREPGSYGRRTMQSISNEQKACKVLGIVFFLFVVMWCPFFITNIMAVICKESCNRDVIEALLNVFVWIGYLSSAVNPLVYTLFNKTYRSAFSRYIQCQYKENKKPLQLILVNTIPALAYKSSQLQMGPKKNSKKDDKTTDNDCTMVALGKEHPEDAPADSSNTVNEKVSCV

Compound | Ki [1] [nM] | Ki [2] [nM] | Log Ki [3] | Ki [4] [nM] | Ki [5] [nM] | other results
CN1CCN(C2=Nc3cc(Cl)ccc3Nc3ccccc32)CC1 [CLOZAPINE] |  |  |  |  |  | ED50 [7]: 0.002 mg/kg
O=C(NCCCCN1CCN(c2ccccc2)CC1)c1ccc(Br)cc1 | 126 |  |  | 398 | 6.31 | 
O=C(CCCN1CCC(O)(c2ccc(Cl)cc2)CC1)c1ccc(F)cc1 [HALOPERIDOL] |  |  |  |  |  | ED50 [8]: 0.05 mg/kg
COc1ccc(OC)c(N2CCN(CCCCNC(=O)c3ccc(Br)cc3)CC2)c1 | 251 |  | -7.5 | 100 | 3.16 | 

The remaining compounds from weak to strong by Ki [1], led by results:

Ki [1] [nM] | Ki [2] [nM] | Log Ki [3] | Ki [4] [nM] | Ki [5] [nM] | Compound | other results
20 | 158 | -7.9 | 25.1 | 0.316 | COc1ccccc1N1CCN(CCCCNC(=O)c2ccc(-c3ccc(S(C)(=O)=O)cc3)cc2)CC1 | 
12.6 | 501 | -7.9 | 39.8 | 0.501 | COc1ccccc1N1CCN(CCCCNC(=O)c2ccc(Br)cc2)CC1 | Ki [6]: 50.1 nM
12.6 | 100 | -8 | 20 | 0.2 | COc1ccccc1N1CCN(CCCCNC(=O)c2ccc(-c3ccc(N)cc3)cc2)CC1 | 
3.16 | 398 |  | 39.8 | 0.316 | COc1ccccc1N1CCN(CCCCNC(=O)c2ccc(-c3ccc(C(C)=O)cc3)cc2)CC1 | ED50 [7]: 0.3 mg/kg; ED50 [8]: > 10 mg/kg; pKB [9]: < 5; pKB [10]: 7.8; Ki [11]: 63.1 nM; Log Ki [12]: -7.9; Log Ki [13]: > -5
